Measured values as given in paper PMC6743422, “Preclinical disposition of MGS0274 besylate, a prodrug of a potent group II metabotropic glutamate receptor agonist MGS0008 for the treatment of schizophrenia” (Pharmacology Research & Perspectives, 2019).
pIC50: −log10 of the molar value. Where two headings read alike, the source gives them in different places. Marks after values point to notes of the source that are not given here. Each block holds one compound with its values, some of them ahead of it.

What was measured:
[1] = biological target: T1, CYP2C9 (Homo sapiens, UniProt P11712); test: CYP inhibition in human liver microsomes, CYP2C9; format: in vitro ADME; conditions: human liver microsomes 0.1 mg/mL; probe Diclofenac, metabolite 4'-Hydroxydiclofenac
T1 construct: using probe substrates for each CYP isoform and human liver microsomes; from tissue; host or cells: human liver microsomes

[2] = biological target: T2, CYP2C19 (Homo sapiens, UniProt P33261); test: CYP inhibition in human liver microsomes, CYP2C19; format: in vitro ADME; conditions: human liver microsomes 0.1 mg/mL; probe (S)-Mephenytoin, metabolite 4'-Hydroxymephenytoin
T2 construct: using probe substrates for each CYP isoform and human liver microsomes; from tissue; host or cells: human liver microsomes

[3] = biological target: T3, CYP1A2 (Homo sapiens, UniProt P05177); test: CYP inhibition in human liver microsomes, CYP1A2; format: in vitro ADME; conditions: human liver microsomes 0.1 mg/mL; probe Phenacetin, metabolite Acetaminophen
T3 construct: using probe substrates for each CYP isoform and human liver microsomes; from tissue; host or cells: human liver microsomes
Protocol: The inhibition potential of MGS0008 (0.3‐100 µmol/L) and MGS0274 besylate (0.03‐10 µmol/L) on the activity of human cytochrome P450 (CYP) isoforms (CYP1A2, 2B6, 2C8, 2C9, 2C19, 2D6, and 3A) was investigated using probe substrates for each CYP isoform and human liver microsomes, of which the final protein concentration was set at 0.1 mg/mL (see Table S2). The assay was started by spiking the reaction mixture, which had been pre‐incubated at 37°C for 5 minutes, with NADP^+. After incubation for 5 to 10 minutes, the reaction was terminated by adding acetonitrile containing an internal standard for each probe substrate, and the resultant mixture was centrifuged. Aliquots of the supernatant were subjected to bioanalysis using LC‐MS/MS (see Table S1‐D).
The final protein concentration in the reaction mixture was set at 0.1 mg/mL. The values in parentheses represent the final concentrations of compounds added in each reaction mixture. […]

[4] = tested on: cultured human hepatocytes; test: Toxicity to the cultured human hepatocytes; format: cell-based; conditions: at the concentrations tested (3-30 μM)
[5] = biological target: T4, CYP2C8 (Homo sapiens, UniProt P10632); test: CYP inhibition in human liver microsomes, CYP2C8; format: in vitro ADME; conditions: human liver microsomes 0.1 mg/mL; probe Amodiaquine, metabolite N-desethylamodiaquine
T4 construct: using probe substrates for each CYP isoform and human liver microsomes; from tissue; host or cells: human liver microsomes

[6] = Prediction of human pharmacokinetic parameters by single-species allometric scaling
Protocol: The prediction of CLtotal, Vdss, and t1/2 in humans was performed using single‐species allometric scaling methods 14 with the pharmacokinetic parameters obtained from the intravenous administration of MGS0008 to rats and monkeys, unbound fraction of MGS0008 in rat, monkey, and human plasma (1.0), and body weight of rats (0.3 kg), monkeys (5 kg), and humans (60 kg).

[7] = tested on: CYP2B6 mRNA; test: CYP induction in primary cultured cryopreserved human hepatocytes, CYP2B6 mRNA; conditions: three consecutive 24-hour treatments
Protocol: (§1) The primary cultured cryopreserved human hepatocytes were plated in a collagen‐coated 96‐well plate (Becton Dickinson, Franklin Lakes, NJ) with Williams’ Medium E (Invitrogen, Carlsbad, CA) containing Geltrex^TM (Invitrogen) and Maintenance Supplements (Invitrogen) and maintained in humidified air‐5% CO2 at 37°C for 3 days. Then, the cells were cultured for three consecutive 24‐hour treatments with MGS0008 (3‐30 µmol/L), with MGS0274 besylate (3‐30 µmol/L), or with positive controls (omeprazole for CYP1A2 at 50 µmol/L, phenobarbital for CYP2B6 at 1000 µmol/L, or rifampicin for CYP3A4 at 10 µmol/L). The mRNA expression levels of CYP1A2, 2B6, and 3A4 were measured using the real‐time polymerase chain reaction (RT‐PCR) method (7500 Fast RT‐PCR system; Applied Biosystems, Foster City, CA) with TaqMan® Fast Universal PCR Master Mix (probe ID: Hs00167927_m1 for CYP1A2, Hs04183483_g1 for CYP2B6, and Hs00604506_ml for CYP3A4; Applied Biosystems). The fold change in the mRNA expression was calculated using the 2^‐ΔΔCT method.22

[8] = tested on: mRNA expression of CYP1A2, 2B6, and 3A4; test: CYP induction in human hepatocytes, CYP1A2, 2B6 and 3A4 together; format: in vitro ADME; conditions: 3-30 µmol/L; three lots of human hepatocytes
Protocol: as §1

[9] = tested on: CYP1A2 mRNA; test: CYP induction in primary cultured cryopreserved human hepatocytes, CYP1A2 mRNA; format: in vitro ADME; conditions: three consecutive 24-hour treatments
Protocol: as §1

[10] = tested on: human cytochrome P450 (CYP) isoforms (CYP1A2, 2B6, 2C8, 2C9, 2C19, 2D6, and 3A); test: CYP inhibition in human liver microsomes, all 7 isoforms together; format: in vitro ADME; conditions: MGS0008 0.3-100 µmol/L, MGS0274 besylate 0.03-10 µmol/L
[11] = tested on: CYP1A2, 2B6, 2C8, 2C9, 2C19, 2D6 and 3A; test: as above; format: in vitro ADME; conditions: human, all the CYP isoforms tested, read-out: percent inhibition
[12] = tested on: CYP3A4 mRNA; format: in vitro ADME, human; conditions: three consecutive 24-hour treatments
Protocol: as §1

[13] = biological target: T5, CYP2D6 (Homo sapiens, UniProt P10635); test: CYP inhibition in human liver microsomes, CYP2D6; format: in vitro ADME; conditions: human liver microsomes 0.1 mg/mL; probe (±)-Bufuralol, metabolite 1'-Hydroxybufuralol
T5 construct: using probe substrates for each CYP isoform and human liver microsomes; from tissue; host or cells: human liver microsomes

[14] = biological target: T6, CYP2B6 (Homo sapiens, UniProt P20813); test: CYP inhibition in human liver microsomes, CYP2B6; format: in vitro ADME; conditions: human liver microsomes 0.1 mg/mL; probe Bupropion, metabolite Hydroxybupropion
T6 construct: using probe substrates for each CYP isoform and human liver microsomes; from tissue; host or cells: human liver microsomes

[15] = single-species allometric scaling from the monkey data
[16] = single-species allometric scaling from the rat data

T2 sequence (P33261 whole entry, canonical isoform): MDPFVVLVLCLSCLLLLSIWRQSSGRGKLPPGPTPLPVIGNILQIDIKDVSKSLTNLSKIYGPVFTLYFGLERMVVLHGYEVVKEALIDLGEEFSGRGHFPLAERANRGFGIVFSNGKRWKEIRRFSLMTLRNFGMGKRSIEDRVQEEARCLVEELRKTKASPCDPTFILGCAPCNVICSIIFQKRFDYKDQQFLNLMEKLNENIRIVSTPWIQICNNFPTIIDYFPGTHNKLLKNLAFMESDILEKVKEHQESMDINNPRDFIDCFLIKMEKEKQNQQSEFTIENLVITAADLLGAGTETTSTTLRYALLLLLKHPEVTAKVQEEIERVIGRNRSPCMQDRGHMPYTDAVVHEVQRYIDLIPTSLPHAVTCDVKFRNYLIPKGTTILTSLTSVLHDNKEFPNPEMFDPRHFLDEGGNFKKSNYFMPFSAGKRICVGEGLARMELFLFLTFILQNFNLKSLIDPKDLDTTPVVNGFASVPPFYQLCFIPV
T3 sequence (P05177 whole entry, canonical isoform): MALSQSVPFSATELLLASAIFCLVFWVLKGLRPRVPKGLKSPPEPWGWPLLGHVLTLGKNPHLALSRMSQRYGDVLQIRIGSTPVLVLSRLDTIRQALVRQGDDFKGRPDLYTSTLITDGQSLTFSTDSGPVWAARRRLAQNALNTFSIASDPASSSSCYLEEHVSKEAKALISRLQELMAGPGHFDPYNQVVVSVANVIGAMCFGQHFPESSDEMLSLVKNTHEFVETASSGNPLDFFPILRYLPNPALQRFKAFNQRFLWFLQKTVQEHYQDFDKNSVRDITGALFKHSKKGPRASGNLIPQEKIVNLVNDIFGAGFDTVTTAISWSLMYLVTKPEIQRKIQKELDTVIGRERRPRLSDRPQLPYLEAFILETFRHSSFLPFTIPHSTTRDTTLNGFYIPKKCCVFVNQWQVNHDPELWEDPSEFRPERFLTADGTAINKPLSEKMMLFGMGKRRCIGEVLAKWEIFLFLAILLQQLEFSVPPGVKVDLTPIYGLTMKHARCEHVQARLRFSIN
T5 sequence (P10635 whole entry, canonical isoform): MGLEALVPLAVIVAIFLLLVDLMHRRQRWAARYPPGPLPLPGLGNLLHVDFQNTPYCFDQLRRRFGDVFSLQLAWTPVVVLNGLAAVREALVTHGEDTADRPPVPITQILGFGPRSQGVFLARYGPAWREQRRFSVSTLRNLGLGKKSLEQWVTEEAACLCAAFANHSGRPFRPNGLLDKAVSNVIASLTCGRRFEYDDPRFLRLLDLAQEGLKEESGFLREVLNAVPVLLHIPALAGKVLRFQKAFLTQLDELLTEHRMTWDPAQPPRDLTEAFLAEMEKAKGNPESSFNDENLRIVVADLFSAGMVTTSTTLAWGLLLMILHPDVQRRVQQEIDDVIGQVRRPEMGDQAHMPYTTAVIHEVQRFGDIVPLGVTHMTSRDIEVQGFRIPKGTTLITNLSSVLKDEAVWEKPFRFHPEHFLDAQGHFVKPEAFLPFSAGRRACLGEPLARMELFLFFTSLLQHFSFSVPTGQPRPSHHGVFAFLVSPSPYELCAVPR
T6 sequence (P20813 whole entry, canonical isoform): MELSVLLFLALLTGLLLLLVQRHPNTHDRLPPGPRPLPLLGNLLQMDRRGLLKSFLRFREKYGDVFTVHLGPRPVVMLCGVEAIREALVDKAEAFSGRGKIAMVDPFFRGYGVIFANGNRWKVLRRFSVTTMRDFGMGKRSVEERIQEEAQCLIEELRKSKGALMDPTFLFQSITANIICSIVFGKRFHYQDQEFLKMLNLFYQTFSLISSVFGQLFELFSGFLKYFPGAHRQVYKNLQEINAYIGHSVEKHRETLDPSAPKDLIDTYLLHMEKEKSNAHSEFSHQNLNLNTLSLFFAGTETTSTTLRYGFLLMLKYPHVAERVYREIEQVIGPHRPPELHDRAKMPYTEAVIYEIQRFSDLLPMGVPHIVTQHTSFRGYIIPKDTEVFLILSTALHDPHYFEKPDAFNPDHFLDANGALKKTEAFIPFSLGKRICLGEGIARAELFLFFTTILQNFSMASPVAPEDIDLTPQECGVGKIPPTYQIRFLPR
T1 sequence (P11712 whole entry, canonical isoform): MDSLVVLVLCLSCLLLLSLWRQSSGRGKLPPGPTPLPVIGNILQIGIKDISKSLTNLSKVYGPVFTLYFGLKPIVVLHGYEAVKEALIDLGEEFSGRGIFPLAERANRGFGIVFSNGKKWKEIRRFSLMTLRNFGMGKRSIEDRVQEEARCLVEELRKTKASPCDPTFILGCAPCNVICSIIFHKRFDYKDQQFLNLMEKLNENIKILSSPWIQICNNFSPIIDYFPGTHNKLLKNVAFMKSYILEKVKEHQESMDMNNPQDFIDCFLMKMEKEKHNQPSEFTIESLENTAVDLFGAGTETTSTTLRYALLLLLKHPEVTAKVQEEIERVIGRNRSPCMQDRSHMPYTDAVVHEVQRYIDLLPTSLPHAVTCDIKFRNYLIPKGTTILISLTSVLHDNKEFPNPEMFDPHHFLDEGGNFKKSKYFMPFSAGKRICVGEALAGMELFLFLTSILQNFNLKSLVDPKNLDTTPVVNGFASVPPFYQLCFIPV
T4 sequence (P10632 whole entry, canonical isoform): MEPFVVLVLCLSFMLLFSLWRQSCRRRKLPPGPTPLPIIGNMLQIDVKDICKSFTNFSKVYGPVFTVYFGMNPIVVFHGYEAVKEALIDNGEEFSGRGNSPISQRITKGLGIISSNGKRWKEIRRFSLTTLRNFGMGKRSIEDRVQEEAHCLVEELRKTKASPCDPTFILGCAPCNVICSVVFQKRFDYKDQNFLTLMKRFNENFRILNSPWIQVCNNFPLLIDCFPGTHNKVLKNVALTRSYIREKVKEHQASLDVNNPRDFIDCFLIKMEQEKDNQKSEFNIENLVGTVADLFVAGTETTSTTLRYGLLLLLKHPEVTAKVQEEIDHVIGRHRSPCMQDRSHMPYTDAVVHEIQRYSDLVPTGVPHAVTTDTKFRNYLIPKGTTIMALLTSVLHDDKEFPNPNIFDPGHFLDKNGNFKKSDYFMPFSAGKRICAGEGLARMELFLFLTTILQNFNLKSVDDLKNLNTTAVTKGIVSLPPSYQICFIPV

Structure (SMILES): N[C@]1(C(=O)O)[C@H]2[C@@H](C[C@@H]1F)[C@@H]2C(=O)O [MGS0008, (1S,2S,3S,5R,6S)‐2‐amino‐3‐fluorobicyclo[3.1.0]hexane‐2,6‐dicarboxylic acid]
pIC50 [1]: < 4.00
pIC50 [2]: < 4.00
pIC50 [3]: < 4.00
toxicity to the cultured human hepatocytes [4]: did not show detectable toxicity
pIC50 [5]: < 4.00
predicted CLtotal in humans [6, 15]: 0.0693 L/h/kg
predicted Vdss in humans [6, 15]: 0.181 L/kg
predicted t1/2 in humans [6, 15]: 1.8 h
predicted CLtotal in humans [6, 16]: 0.146 L/h/kg
predicted Vdss in humans [6, 16]: 0.545 L/kg
predicted t1/2 in humans [6, 16]: 2.6 h
Fold change of mRNA expression level CYP2B6 ([7]; hepatocyte lot Hu1487, 3 μM): 0.9 fold
Fold change of mRNA expression level CYP2B6 ([7]; hepatocyte lot Hu1487, 10 μM): 0.7 fold
Fold change of mRNA expression level CYP2B6 ([7]; hepatocyte lot Hu1487, 30 μM): 0.9 fold
Fold change of mRNA expression level CYP2B6 ([7]; hepatocyte lot Hu8114, 3 μM): 0.8 fold
Fold change of mRNA expression level CYP2B6 ([7]; hepatocyte lot Hu8114, 10 μM): 0.8 fold
Fold change of mRNA expression level CYP2B6 ([7]; hepatocyte lot Hu8114, 30 μM): 1.0 fold
Fold change of mRNA expression level CYP2B6 ([7]; hepatocyte lot Hu8123, 3 μM): 1.2 fold
Fold change of mRNA expression level CYP2B6 ([7]; hepatocyte lot Hu8123, 10 μM): 1.2^b fold
Fold change of mRNA expression level CYP2B6 ([7]; hepatocyte lot Hu8123, 30 μM): 1.3 fold
induction potential on the CYP mRNA tested [8]: no apparent induction potential
Fold change of mRNA expression level CYP1A2 ([9]; hepatocyte lot Hu1487, 3 μM): 0.8 fold
Fold change of mRNA expression level CYP1A2 ([9]; hepatocyte lot Hu1487, 10 μM): 0.7 fold
Fold change of mRNA expression level CYP1A2 ([9]; hepatocyte lot Hu1487, 30 μM): 1.0 fold
Fold change of mRNA expression level CYP1A2 ([9]; hepatocyte lot Hu8114, 3 μM): 1.1 fold
Fold change of mRNA expression level CYP1A2 ([9]; hepatocyte lot Hu8114, 10 μM): 1.0 fold
Fold change of mRNA expression level CYP1A2 ([9]; hepatocyte lot Hu8114, 30 μM): 1.1 fold
Fold change of mRNA expression level CYP1A2 ([9]; hepatocyte lot Hu8123, 3 μM): 0.9 fold
Fold change of mRNA expression level CYP1A2 ([9]; hepatocyte lot Hu8123, 10 μM): 1.1^b fold
Fold change of mRNA expression level CYP1A2 ([9]; hepatocyte lot Hu8123, 30 μM): 0.9 fold
inhibitory potential on the CYP isoforms [10]: no inhibitory potential
inhibition at 100 µM ([11]; at 100 μM): < 50%
Fold change of mRNA expression level CYP3A4 ([12]; hepatocyte lot Hu1487, 3 μM): 1.3 fold
Fold change of mRNA expression level CYP3A4 ([12]; hepatocyte lot Hu1487, 10 μM): 1.3 fold
Fold change of mRNA expression level CYP3A4 ([12]; hepatocyte lot Hu1487, 30 μM): 1.7 fold
Fold change of mRNA expression level CYP3A4 ([12]; hepatocyte lot Hu8114, 3 μM): 1.4 fold
Fold change of mRNA expression level CYP3A4 ([12]; hepatocyte lot Hu8114, 10 μM): 1.4 fold
Fold change of mRNA expression level CYP3A4 ([12]; hepatocyte lot Hu8114, 30 μM): 1.9 fold
Fold change of mRNA expression level CYP3A4 ([12]; hepatocyte lot Hu8123, 3 μM): 1.0 fold
Fold change of mRNA expression level CYP3A4 ([12]; hepatocyte lot Hu8123, 10 μM): 0.7 fold
Fold change of mRNA expression level CYP3A4 ([12]; hepatocyte lot Hu8123, 30 μM): 0.9 fold
pIC50 [13]: < 4.00
pIC50 [14]: < 4.00

pIC50 [1]: < 5.00
pIC50 [2]: < 5.00
pIC50 [3]: < 5.00
pIC50 [5]: < 5.00
Fold change of mRNA expression level CYP2B6 ([7]; hepatocyte lot Hu1487, 3 μM): 1.1 fold
Fold change of mRNA expression level CYP2B6 ([7]; hepatocyte lot Hu1487, 10 μM): 1.0 fold
Fold change of mRNA expression level CYP2B6 ([7]; hepatocyte lot Hu1487, 30 μM): 1.4 fold
Fold change of mRNA expression level CYP2B6 ([7]; hepatocyte lot Hu8114, 3 μM): 0.8 fold
Fold change of mRNA expression level CYP2B6 ([7]; hepatocyte lot Hu8114, 10 μM): 1.0 fold
Fold change of mRNA expression level CYP2B6 ([7]; hepatocyte lot Hu8114, 30 μM): 1.5 fold
Fold change of mRNA expression level CYP2B6 ([7]; hepatocyte lot Hu8123, 3 μM): 1.7 fold
Fold change of mRNA expression level CYP2B6 ([7]; hepatocyte lot Hu8123, 10 μM): 1.8 fold
Fold change of mRNA expression level CYP2B6 ([7]; hepatocyte lot Hu8123, 30 μM): 2.4 fold
induction potential on the CYP mRNA tested [8]: no apparent induction potential
Fold change of mRNA expression level CYP1A2 ([9]; hepatocyte lot Hu1487, 3 μM): 1.0 fold
Fold change of mRNA expression level CYP1A2 ([9]; hepatocyte lot Hu1487, 10 μM): 1.0 fold
Fold change of mRNA expression level CYP1A2 ([9]; hepatocyte lot Hu1487, 30 μM): 1.4 fold
Fold change of mRNA expression level CYP1A2 ([9]; hepatocyte lot Hu8114, 3 μM): 1.1 fold
Fold change of mRNA expression level CYP1A2 ([9]; hepatocyte lot Hu8114, 10 μM): 1.0 fold
Fold change of mRNA expression level CYP1A2 ([9]; hepatocyte lot Hu8114, 30 μM): 1.1 fold
Fold change of mRNA expression level CYP1A2 ([9]; hepatocyte lot Hu8123, 3 μM): 1.1 fold
Fold change of mRNA expression level CYP1A2 ([9]; hepatocyte lot Hu8123, 10 μM): 1.2 fold
Fold change of mRNA expression level CYP1A2 ([9]; hepatocyte lot Hu8123, 30 μM): 1.3 fold
inhibitory potential on the CYP isoforms [10]: no inhibitory potential
inhibition at 10 µM ([11]; at 10 μM): < 50%
Fold change of mRNA expression level CYP3A4 ([12]; hepatocyte lot Hu1487, 3 μM): 1.4 fold
Fold change of mRNA expression level CYP3A4 ([12]; hepatocyte lot Hu1487, 10 μM): 1.5 fold
Fold change of mRNA expression level CYP3A4 ([12]; hepatocyte lot Hu1487, 30 μM): 1.8 fold
Fold change of mRNA expression level CYP3A4 ([12]; hepatocyte lot Hu8114, 3 μM): 1.1 fold
Fold change of mRNA expression level CYP3A4 ([12]; hepatocyte lot Hu8114, 10 μM): 0.9 fold
Fold change of mRNA expression level CYP3A4 ([12]; hepatocyte lot Hu8114, 30 μM): 1.1 fold
Fold change of mRNA expression level CYP3A4 ([12]; hepatocyte lot Hu8123, 3 μM): 0.8 fold
Fold change of mRNA expression level CYP3A4 ([12]; hepatocyte lot Hu8123, 10 μM): 0.8 fold
Fold change of mRNA expression level CYP3A4 ([12]; hepatocyte lot Hu8123, 30 μM): 0.9 fold
pIC50 [13]: < 5.00
pIC50 [14]: < 5.00
Structure (SMILES): CC(C)[C@@H]1CC[C@@H](C)C[C@H]1OC(=O)O[C@@H](C)OC(=O)[C@H]1[C@@H]2C[C@H](F)[C@@](N)(C(=O)O)[C@@H]21.O=S(=O)(O)c1ccccc1 [MGS0274 besylate, (1S,2S,3S,5R,6S)‐2‐amino‐3‐fluoro‐6‐({(1S)‐1‐[({[(1R,2S,5R)‐5‐methyl‐2‐(propan‐2‐yl)cyclohexyl]oxy}carbonyl)oxy]ethoxy}carbonyl)bicyclo[3.1.0]hexane‐2‐carboxylic acid monobenzenesulfonate]
toxicity to the cultured human hepatocytes [4]: did not show detectable toxicity
